Several values for one entry are separate records, joined by “and”; a condition that tells them apart may be missing. Equal entries are not always repeated.
How the values were obtained:
[1] = tested on: KCNJ16 knockout HK-2 cells; test: Cell viability after 24 h treatment; format: cell-based, human; details: KCNJ16 knockout HK-2 cells, 24 h, Fig. 6b; for Cell viability, KCNJ16 KO, Rep2: replicate 2; for Cell viability, KCNJ16 KO, Rep3: replicate 3; for Cell viability, KCNJ16 KO, Rep4: replicate 4
Description: Fig. 6 Transcriptomic changes in human kidney proximal tubular HK-2 cells following treatments with polymyxin B (PMB), colistin (COL), F287, F319, and F365. a Numbers of differentially expressed genes. Distinctive intersections are color-coded. b Cell viability difference (two-tailed Student’s t-test, n = 4 biologically independent cells, Benjamini–Hochberg adjusted P-values) between wild-type HK-2 and KCNJ16 knockout (KO) cells following 24 h treatment with lipopeptides. n.s., not significant; ^*adjusted P < 0.05, ^**adjusted P < 0.01, ^***adjusted P < 0.001. Data are shown as mean ± s.d. and individual data points. c Extracted transcriptional regulatory network from Signor database with 1-step neighbor constraints (enlarged for detail). Source data are provided as a Source Data file.

[2] = tested on: HK-2 cells; test: Transcriptomic analysis (RNA-Seq) of kidney cells; format: cell-based, human; details: for logFC, differential gene expression for all genes / log2FC / Fold Change: HK-2 RNA-Seq; for log2FC: Fig. 5f; for Fold Change: Fig. 5e; for num.of.degs: number of differentially expressed genes per peptide, Fig. 6a
Description: Human Kidney-2 (HK-2) cells (CRL-2190™, American Type Culture Collection) were treated with 100 μM colistin, F287, F319, and F365 for 24 h. Previous transcriptomic data of HK-2 cells following 24 h treatment with polymyxin B[26] were also employed for comparative bioinformatic analysis. RNA extraction was conducted as described above. Raw reads were aligned to genome GRCh38.94 (Ensembl genome database, http://ftp.ensembl.org/pub/release-94/fasta/homo_sapiens/dna/) using […] and summarized by featureCounts. Differentially expressed genes were determined using limma 3.46.0, with a combination of fold change ≥ 1.5 and FDR (by Benjamini–Hochberg algorithm) adjusted P-value ≤ 0.05 (n = 3). Key regulatory genes of HK-2 were analyzed in the context of signaling network in the Signor 2.0 database. Enrichment analysis of gene differential expression in HK-2 cells was conducted using enrichR 2.1. UpSetR 1.4.0, ComplexHeatmap 2.6.2, circlize 0.4.13 and iGraph 1.2.11 were used for data visualization. Raw data were deposited in the Short Reads Archive database under accession numbers SRR15239061-SRR15239078.

[3] = tested on: A. baumannii ATCC 19606; format: cell-based, Acinetobacter baumannii
In short: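 Read-out is the minimum inhibitory concentration, obtained by serially diluting compound in cation-adjusted Mueller–Hinton medium and exposing each isolate in microdilution format.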

[4] = tested on: A. baumannii FADDI-AB034; format: cell-based, Acinetobacter baumannii; details: carbapenem-resistant isolate
In short: (§1)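 MICs were determined by broth microdilution in cation-adjusted Mueller–Hinton broth (CaMHB), with clinical isolates tested alongside ATCC strains.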

[5] = tested on: A. baumannii AB5075; format: cell-based, Acinetobacter baumannii
In short: as §1

[6] = tested on: A. baumannii FADDI-AB030; format: cell-based, Acinetobacter baumannii; details: carbapenem-resistant isolate
In short: as §1

[7] = tested on: A. baumannii AB5075; test: In vitro passaging, emergence of resistance; format: cell-based, Acinetobacter baumannii; details: for time to emergence of resistance: 4× MIC, 7-day passaging; for growth over 7 days: 32× MIC
Description: Log-phase cultures (OD600 = 0.5, ~10^8 CFU/mL) of A. baumannii AB5075 were inoculated (1:10, v/v) in 200 μL fresh CaMHB (cation-adjusted Mueller–Hinton broth) containing 2, 8 and 16 μg/mL polymyxin B, colistin, F287, and F365 in a 96-well microplate with 4 biological replicates. The cultures were incubated at 37 °C for 12 h before the next dilution (1:10, v/v) with fresh CaMHB. Successive subculturing was conducted for 7 days.

[8] = tested on: P. aeruginosa ATCC 27853; test: Neutropenic mouse bloodstream infection model; format: in vivo; details: single IV dose 4 mg/kg; for Log10 CFU/mL blood at 4 h, Mean / Δlog10 CFU/mL blood (mean) / Log10 CFU/mL blood at 4 h, single mouse: 4 h; for Δlog10 CFU/mL blood (mean): treated minus control, mean of replicates; for Δlog10 CFU/mL blood (mean) / Log10 CFU/mL blood at 4 h, single mouse / Delta Log10 CFU/mL blood at 4 h, single mouse: 4 mg/kg; for Delta Log10 CFU/mL blood at 4 h, single mouse: treated mouse minus mean of vehicle mice
In short: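 Female Swiss mice made neutropenic with cyclophosphamide (150 mg/kg day −4, 100 mg/kg day −1), infected IV with 50 µL of 4 × 10^8 CFU/mL. Lipopeptide 4 mg/kg (free base) IV at 2 h post-inoculation, n = 3. Efficacy = Δlog10 CFU/mL blood versus saline at 4 h post-dose.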

[9] = locus chr1 629640-630683 (ENSG00000225630 by coordinates)
[10] = locus chr1 632757-633438 (ENSG00000229344 by coordinates)
[11] = 8 ug/mL, time 0 h, passage 0, replicates rep1-rep4, raw OD600 (blank OD600 0.125333)
[12] = 8 ug/mL, time 12 h, passage 1, replicates rep1-rep4, raw OD600 (blank OD600 0.114667)
[13] = 8 ug/mL, time 24 h, passage 2, replicates rep1-rep4, raw OD600 (blank OD600 0.0956667)
[14] = 8 ug/mL, time 36 h, passage 3, replicates rep1-rep4, raw OD600 (blank OD600 0.088)
[15] = 8 ug/mL, time 48 h, passage 4, replicates rep1-rep4, raw OD600 (blank OD600 0.104667)
[16] = 8 ug/mL, time 60 h, passage 5, replicates rep1-rep4, raw OD600 (blank OD600 0.122333)
[17] = 8 ug/mL, time 72 h, passage 6, replicates rep1-rep4, raw OD600 (blank OD600 0.095)
[18] = 8 ug/mL, time 84 h, passage 7, replicates rep1-rep4, raw OD600 (blank OD600 0.091)
[19] = 8 ug/mL, time 96 h, passage 8, replicates rep1-rep4, raw OD600 (blank OD600 0.0953333)
[20] = 8 ug/mL, time 108 h, passage 9, replicates rep1-rep4, raw OD600 (blank OD600 0.100667)
[21] = 8 ug/mL, time 120 h, passage 10, replicates rep1-rep4, raw OD600 (blank OD600 0.0983333)
[22] = 8 ug/mL, time 132 h, passage 11, replicates rep1-rep4, raw OD600 (blank OD600 0.0843333)
[23] = 8 ug/mL, time 144 h, passage 12, replicates rep1-rep4, raw OD600 (blank OD600 0.091)
[24] = 8 ug/mL, time 156 h, passage 13, replicates rep1-rep4, raw OD600 (blank OD600 0.129)

Colistin [reference compound]
Cell viability, KCNJ16 KO, Rep2 [1]: 81.0179
Cell viability, KCNJ16 KO, Rep3 [1]: 91.8189
Cell viability, KCNJ16 KO, Rep4 [1]: 66.4023
logFC, differential gene expression for all genes ([2]; Geneid ENSG00000223972): -0.6712
logFC, differential gene expression for all genes ([2]; Geneid ENSG00000227232): -0.1985
logFC, differential gene expression for all genes ([2]; Geneid ENSG00000233750): -0.899
logFC, differential gene expression for all genes ([2]; Geneid ENSG00000278267): -0.3433
log2FC ([2]; gene ENSG00000017483 SLC38A5): 0.7893
log2FC ([2]; gene ENSG00000023445 BIRC3): -0.6239
log2FC ([2]; gene ENSG00000056558 TRAF1): 0.6268
log2FC ([2]; gene ENSG00000066468 FGFR2): -1.3101
Fold Change [2, 9]: 0.2606
Fold Change [2, 10]: 0.2186
num.of.degs [2]: 1282
MIC A. baumannii ATCC 19606 [3]: 1 µg/mL
MIC A. baumannii FADDI-AB034 [4]: 0.5 µg/mL
MIC A. baumannii AB5075 [5]: 0.5 µg/mL
MIC A. baumannii FADDI-AB030 [6]: 0.5 µg/mL
regrowth observed from day [7]: 4 days
OD600 [7, 11]: 0.152 and 0.143 and 0.147 and 0.146
OD600 [7, 12]: 0.136 and 0.134 and 0.13
OD600 [7, 13]: 0.095 and 0.089 and 0.087 and 0.091
OD600 [7, 14]: 0.088 and 0.087 and 0.085 and 0.091
OD600 [7, 15]: 0.095 and 0.093
OD600 [7, 16]: 0.125 and 0.117 and 0.115 and 0.107
OD600 [7, 17]: 0.14 and 0.126 and 0.15
OD600 [7, 18]: 0.196 and 0.173 and 0.191 and 0.238
OD600 [7, 19]: 0.224 and 0.238 and 0.275 and 0.393
OD600 [7, 20]: 0.309 and 0.315 and 0.31 and 0.392
OD600 [7, 21]: 0.387 and 0.364 and 0.444 and 0.49
OD600 [7, 22]: 0.344 and 0.355 and 0.395 and 0.414
OD600 [7, 23]: 0.477 and 0.464 and 0.465 and 0.416
OD600 [7, 24]: 0.339 and 0.382 and 0.394
OD600 ([7]; 8 ug/mL, time 168 h, passage 14, replicates rep1-rep4, raw OD600 (blank OD600 0.101)): 0.344 and 0.379 and 0.374 and 0.394
time to emergence of resistance [7]: ≤ 3 days
growth over 7 days [7]: No growth
Log10 CFU/mL blood at 4 h, Mean [8]: 5.05 Log10 CFU/mL blood
Δlog10 CFU/mL blood (mean) [8]: -2.39 log10 CFU/mL blood
Δlog10 CFU/mL blood (mean) ([8]; listed as COL): −2.39 log10 CFU/mL blood
Log10 CFU/mL blood at 4 h, single mouse [8]: 5.25 Log10 CFU/mL blood and 4.89 Log10 CFU/mL blood and 5.02 Log10 CFU/mL blood
Delta Log10 CFU/mL blood at 4 h, single mouse [8]: -2.19 Log10 CFU/mL blood and -2.56 Log10 CFU/mL blood and -2.42 Log10 CFU/mL blood

Polymyxin B [reference compound]
Cell viability, KCNJ16 KO, Rep1 ([1]; replicate 1): 61.7446
Cell viability, KCNJ16 KO, Rep2 [1]: 73.0677
Cell viability, KCNJ16 KO, Rep3 [1]: 75.1154
Cell viability, KCNJ16 KO, Rep4 [1]: 76.9625
logFC, differential gene expression for all genes ([2]; Geneid ENSG00000223972): 0.4637
logFC, differential gene expression for all genes ([2]; Geneid ENSG00000227232): -0.07236
logFC, differential gene expression for all genes ([2]; Geneid ENSG00000233750): -0.3869
logFC, differential gene expression for all genes ([2]; Geneid ENSG00000278267): -0.4937
log2FC ([2]; gene ENSG00000017483 SLC38A5): 0.7953
log2FC ([2]; gene ENSG00000023445 BIRC3): -0.454
log2FC ([2]; gene ENSG00000056558 TRAF1): 0.6897
log2FC ([2]; gene ENSG00000066468 FGFR2): -1.758
Fold Change [2, 9]: 1.799
Fold Change ([2]; locus chr1 631074-632616 (ENSG00000237973 by coordinates)): 1.271
Fold Change [2, 10]: 1.2
num.of.degs [2]: 1576
MIC A. baumannii ATCC 19606 [3]: 1 µg/mL
MIC A. baumannii FADDI-AB034 [4]: 0.5 µg/mL
MIC A. baumannii AB5075 [5]: 0.5 µg/mL
MIC A. baumannii FADDI-AB030 [6]: 0.25 µg/mL
regrowth observed from day [7]: 3 days
OD600 [7, 11]: 0.153 and 0.134 and 0.139 and 0.14
OD600 [7, 12]: 0.127 and 0.115 and 0.123 and 0.124
OD600 [7, 13]: 0.086 and 0.093 and 0.096 and 0.083
OD600 [7, 14]: 0.088 and 0.089 and 0.094 and 0.092
OD600 [7, 15]: 0.096 and 0.099 and 0.098 and 0.101
OD600 [7, 16]: 0.108 and 0.105 and 0.103 and 0.116
OD600 [7, 17]: 0.092 and 0.093 and 0.083 and 0.091
OD600 [7, 18]: 0.1 and 0.081 and 0.084 and 0.089
OD600 [7, 19]: 0.192 and 0.105 and 0.119 and 0.106
OD600 [7, 20]: 0.179 and 0.108 and 0.11 and 0.118
OD600 [7, 21]: 0.215 and 0.139 and 0.136 and 0.132
OD600 [7, 22]: 0.198 and 0.19 and 0.197 and 0.21
OD600 [7, 23]: 0.2 and 0.22 and 0.217 and 0.231
OD600 [7, 24]: 0.176 and 0.181 and 0.195 and 0.201
time to emergence of resistance [7]: ≤ 3 days
growth over 7 days [7]: No growth
OD600 ([7]; in vitro passaging, concentration 8 ug/mL, time 168 h, passage 14, individual replicates rep1-rep4, not blank-subtracted (blank OD600 0.101)): 0.177 and 0.182 and 0.195 and 0.205
Log10 CFU/mL blood at 4 h, Mean [8]: 4.76 Log10 CFU/mL blood
Δlog10 CFU/mL blood (mean) [8]: -2.69 log10 CFU/mL blood
Δlog10 CFU/mL blood (mean) ([8]; listed as PMB): −2.69 log10 CFU/mL blood
Log10 CFU/mL blood at 4 h, single mouse [8]: 4.60 Log10 CFU/mL blood and 4.85 Log10 CFU/mL blood and 4.82 Log10 CFU/mL blood
Delta Log10 CFU/mL blood at 4 h, single mouse [8]: -2.84 Log10 CFU/mL blood and -2.60 Log10 CFU/mL blood and -2.63 Log10 CFU/mL blood

Source: publication PMC8956739, “A synthetic lipopeptide targeting top-priority multidrug-resistant Gram-negative pathogens” (Nature Communications, 2022)
